Assay results as given in ChEMBL document CHEMBL1154198, “Chemical genetics of Plasmodium falciparum” (Nature, 2010).
pEC50: −log10 of the molar value.

Columns and labels:
Plasmodium falciparum [1] = assay: ST_JUDE: Plasmodium falciparum 3D7 EC50 (uM) as measured by SYBR green dye; assay type: functional, organism-based
Plasmodium falciparum [2] = assay: ST_JUDE: Plasmodium falciparum K1 EC50 (uM) as measured by SYBR green dye; assay type: functional, organism-based

Compound	pEC50 (Plasmodium falciparum [1])	pEC50 (Plasmodium falciparum [2])
CCN1CCN(CCNC(=O)c2ccc(/C=C3/Sc4ccccc4N(Cc4cccc(Cl)c4)C3=O)cc2)CC1	< 4.82	< 4.82
COCCn1/c(=N/C(=O)COc2ccccc2)sc2cc(OC)ccc21	< 4.82	< 4.82
Cc1cccc(CN2C(=O)/C(=C\c3ccc(C(=O)N4CCC(N5CCCCC5)CC4)cc3)Oc3ccccc32)c1	5.40	< 4.82
COc1ccc(Nc2cc(C)nc(N3CCN(C(=O)c4ccccc4C(F)(F)F)CC3)n2)cc1	5.45	5.81
C=CCn1c(C)c(C=C2C(=O)NC(=S)NC2=O)c2ccccc21	5.77	5.85
Cc1ccc(N2C(=O)CC(Sc3nccc(C)n3)C2=O)cc1 (stereo not drawn)	< 4.82	< 4.82
CSc1cccc(NC(=O)C2c3ccccc3C(=O)N(C3CCCC3)C2c2cccs2)c1 (stereo not drawn)	6.24	6.02
CCCCN(CC)CCNC(=O)c1cc2cc3ccc(C)cc3nc2o1	< 4.82	5.39
O=C(Nc1cccc(Cl)c1)N1CCn2cccc2C1c1ccc(F)c(F)c1 (stereo not drawn)	4.99	5.18
CN(Cc1cccc(OCCNC(=O)c2ccc3c(c2)OCO3)c1)Cc1cccc2cccnc12	< 4.82	< 4.82
Oc1ccc(I)cc1/C=C/c1cc(O)c2ccccc2n1	< 4.82	5.27
CCCCn1c(=N)n(CC(O)c2ccc(Cl)cc2)c2ccccc21 (stereo not drawn)	6.24	6.26
COCCN1C(=O)c2ccccc2C(C(=O)Nc2ccc(F)c(Cl)c2)C1c1cccs1 (stereo not drawn)	5.59	5.58
COc1ccc(C2C(C(=O)OC(C)C)=C(C)N=c3s/c(=C\c4cc(Cl)ccc4O)c(=O)n32)cc1 (stereo not drawn)	5.15	6.48
CC(=O)N(C1=C(N2CCOCC2)C(=O)c2ccccc2C1=O)c1ccc(C(=O)O)cc1	< 4.82	5.58
CC(C)CN(CC(C)C)S(=O)(=O)c1ccc(C(=O)Nc2nc(-c3ccccn3)cs2)cc1	< 4.82	5.48
COc1ccc2nc(N(Cc3cccnc3)C(=O)Cc3ccccc3)sc2c1	5.26	5.43

Compound	pEC50 (Plasmodium falciparum [1])	pEC50 (Plasmodium falciparum [2])
O=C(Nc1ccc2oc(-c3ccc(F)cc3Cl)nc2c1)C(Cl)(Cl)Cl	< 4.82	< 4.82
O=C(N/N=C/c1nc2ccccc2[nH]1)c1cccc(Cl)c1	5.78	< 4.82
CCOc1ccc(-c2nonc2NC(=O)c2ccccc2C)cc1OCC	< 4.82	5.86
CCCCn1c(=O)c2c(nc3n(-c4ccc(C)c(Cl)c4)c(C)cn23)n(C)c1=O	< 4.82	< 4.82
CCCSc1nc2sc3c(c2c(=O)n1-c1ccc(C)cc1)CCN(Cc1ccccc1)C3	5.88	5.79
Cc1cc(/C=N/n2cnnc2)c(C)n1-c1ccc(Br)cc1	< 4.82	< 4.82
CC(C)CC(=O)NC(NC(=S)Nc1cccc(Cl)c1)C(Cl)(Cl)Cl (stereo not drawn)	5.76	5.60
Cc1cc(N(C)C)nc(Nc2ccc(NS(=O)(=O)c3cccc(Cl)c3)cc2)n1	5.11	< 4.82
Cc1cccc(N2COc3ccc(C(C)(C)C)cc3C2)c1	< 4.82	< 4.82
CCN(CC)CCN1C(=O)c2oc3ccccc3c(=O)c2C1c1cccc(OC)c1 (stereo not drawn)	6.00	5.98
CCOc1ccc(-c2nc(NC(=O)c3cccc(S(C)(=O)=O)c3)sc2C)cc1	< 4.82	< 4.82
CC(=O)NC1=C(Cl)C(=O)c2ccccc2C1=O	5.39	5.66
OC(CNCc1ccccc1)Cn1c2ccccc2c2ccccc21 (stereo not drawn)	5.43	6.09
CC(=O)N(C1=C(N2CCOCC2)C(=O)c2ccccc2C1=O)c1ccc(F)cc1	6.29	6.26
COc1cccc(NC(=O)Cn2c3ccccc3c(=O)c3cc(Cl)ccc32)c1	< 4.82	5.26
CCOc1cc(-c2nc(-c3ccc(OC)cc3)c(-c3ccccc3)[nH]2)ccc1O	5.83	5.65
O=C1C(Nc2cccc(Br)c2)=C(N2CCCCC2)C(=O)c2ccccc21	6.34	5.94
